Data: patent US8778964B2, “Hydroxy-substituted imidazo[1,2-a]-pyridinecarboxamides and their use” (Bayer Pharma Aktiengesellschaft, priority 2012, dated 2014)
Structures can show the parent of a compound that is named as a salt.

Tested on: recombinant guanylate cyclase reporter cell line
Experiment: Action on recombinant guanylate cyclase reporter cell line (MEC)
Assay type: cell-based
Conditions: in some cases mean values obtained from individual determinations
Protocol: B-2. Action on Recombinant Guanylate Cyclase Reporter Cell Line
The cellular action of the compounds according to the invention is determined on a recombinant guanylate cyclase reporter cell line, as described in F. Wunder et al., Anal. Biochem. 339, 104-112 (2005).
Representative values (MEC=minimal effective concentration) for the compounds according to the invention are shown in the following table (in some cases as mean values obtained from individual determinations): […]

Cc1nc2c(OCc3c(F)cccc3F)cccn2c1C(=O)NC(c1ccc(F)cc1)C(C)(C)O (racemic) [Example 152, rac-8-[(2,6-difluorobenzyl)oxy]-N-[1-(4-fluorophenyl)-2-hydroxy-2-methylpropyl]-2-methylimidazo[1,2-a]pyridine-3-carboxamide] was tested. Which minimal effective concentration did it give?
The minimal effective concentration was 0.3 µM.

CCCC[C@H](CO)NC(=O)c1c(C)nc2c(OCc3c(F)cccc3F)cc(C#N)cn12 [Example 157, 6-Cyano-8-[(2,6-difluorobenzyl)oxy]-N-[(2R)-1-hydroxyhexan-2-yl]-2-methylimidazo[1,2-a]-pyridine-3-carboxamide] was tested. Which minimal effective concentration did it give?
Its minimal effective concentration is 0.065 µM.

With CCCC[C@H](CO)NC(=O)c1c(C)nc2c(OCc3ccccc3Cl)cccn12 [Example 4, 8-[(2-chlorobenzyl)oxy]-N-[(2R)-1-hydroxyhexan-2-yl]-2-methylimidazo[1,2-a]pyridine-3-carboxamide] as the compound, how does the minimal effective concentration read?
The minimal effective concentration was 0.1 µM.

For Cc1nc2c(OCc3c(F)cccc3F)cccn2c1C(=O)N[C@@H]1CCC[C@H]1O [Example 36, 8-[(2,6-difluorobenzyl)oxy]-N-[(1R,2R)-2-hydroxycyclopentyl]-2-methylimidazo[1,2-a]-pyridine-3-carboxamide], which minimal effective concentration is on record?
The minimal effective concentration was 0.1 µM.

With CCCC[C@H](CO)NC(=O)c1c(C)nc2c(OCc3c(F)cccc3F)cc(Br)cn12 [Example 65, 6-bromo-8-[(2,6-difluorobenzyl)oxy]-N-[(2R)-1-hydroxyhexan-2-yl]-2-methylimidazo[1,2-a]pyridine-3-carboxamide] as the compound, how does the minimal effective concentration read?
The minimal effective concentration was 0.03 µM.

How did the minimal effective concentration turn out when Cc1cc(OCCC(C)C)c2nc(C)c(C(=O)NC(CCCC(F)(F)F)C(C)(C)O)n2c1 (single isomer, unassigned; ent-2) [Example 168, ent-2,6-Dimethyl-8-(3-methylbutoxy)-N-(7,7,7-trifluoro-2-hydroxy-2-methylheptan-3-yl)imidazo-[1,2-a]pyridine-3-carboxamide] was run?
The minimal effective concentration was 3 µM.

Cc1nc2c(OCc3c(F)cccc3F)cccn2c1C(=O)N[C@@H](CO)CC[C@@H](O)C(F)(F)F [Example 135, 8-[(2,6-difluorobenzyl)oxy]-2-methyl-N-[(2R, 5R)-6,6,6-trifluoro-1,5-dihydroxyhexan-2-yl]imidazo[1,2-a]pyridine-3-carboxamide trifluoroacetate (1:1)] was tested. Which minimal effective concentration did it give?
The minimal effective concentration was 0.1 µM.

Which minimal effective concentration does the source give for CCCC[C@H](CO)NC(=O)c1c(C)nc2c(OCc3cccc(C)c3F)cccn12 [Example 11, 8-[(2-fluoro-3-methylbenzyl)oxy]-N-[(2R)-1-hydroxyhexan-2-yl]-2-methylimidazo[1,2-a]pyridine-3-carboxamide] here?
The minimal effective concentration was 1.5 µM.

CCCC[C@H](CO)NC(=O)c1c(C)nc2c(OCc3c(F)c(F)cc(F)c3F)cccn12 [Example 7, N-[(2R)-1-hydroxyhexan-2-yl]-2-methyl-8-[(2,3,5,6-tetrafluorobenzyl)oxy]imidazo[1,2-a]pyridine-3-carboxamide] was tested. Which minimal effective concentration did it give?
Its minimal effective concentration is 0.3 µM.

For Cc1cc(OCCC(C(F)(F)F)C(F)(F)F)c2nc(C)c(C(=O)NC3CCCC3O)n2c1 (stereo not shown) [Example 173, N-(2-hydroxycyclopentyl)-2,6-dimethyl-8-[4,4,4-trifluoro-3-(trifluoromethyl)butoxy]imidazo[1,2-a]pyridine-3-carboxamide], which minimal effective concentration is on record?
Its minimal effective concentration is 3 µM.

How did the minimal effective concentration turn out when CCCC[C@H](CO)NC(=O)c1c(C)nc2c(OCCC(C(F)(F)F)C(F)(F)F)cc(C)cn12 [Example 169, N-[(2R)-1-Hydroxyhexan-2-yl]-2,6-dimethyl-8-[4,4,4-trifluoro-3-(trifluoromethyl)butoxy]imidazo-[1,2-a]pyridine-3-carboxamide] was run?
Its minimal effective concentration is 0.3 µM.

Cc1nc2c(OCc3c(F)cccc3F)cccn2c1C(=O)NCCCCO [Example 23, 8-[(2,6-difluorobenzyl)oxy]-N-(4-hydroxybutyl)-2-methylimidazo[1,2-a]pyridine-3-carboxamide] was tested. Which minimal effective concentration did it give?
Its minimal effective concentration is 0.3 µM.

Which minimal effective concentration does the source give for Cc1nc2c(OCc3cccc(Cl)c3Cl)cccn2c1C(=O)NC(CO)CO [Example 49, 8-[(2,3-dichlorobenzyl)oxy]-N-(1,3-dihydroxypropan-2-yl)-2-methylimidazo[1,2-a]-pyridine-3-carboxamide] here?
The minimal effective concentration was 2 µM.

With Cc1nc2c(OCc3c(F)cccc3F)cccn2c1C(=O)NC(CC(F)(F)F)C(C)(C)O (single isomer, unassigned; ent-8) [Example 154, ent-8-[(2,6-Difluorobenzyl)oxy]-2-methyl-N-(1,1,1-trifluoro-4-hydroxy-4-methylpentan-3-yl)-imidazo[1,2-a]pyridine-3-carboxamide (enantiomer B)] as the compound, how does the minimal effective concentration read?
The minimal effective concentration was 0.03 µM.

For CCOCC(CO)NC(=O)c1c(C)nc2c(OCc3c(F)cccc3F)cccn12 (single isomer, unassigned; ent-8) [Example 161, ent-8-[(2,6-Difluorobenzyl)oxy]-N-(1-ethoxy-3-hydroxypropan-2-yl)-2-methylimidazo[1,2-a]-pyridine-3-carboxamide (enantiomer A)], which minimal effective concentration is on record?
The minimal effective concentration was 1 µM.

Cc1nc2c(OCC3CCCCC3)cccn2c1C(=O)NC1CCCC1O (stereo not shown) [Example 83, 8-(cyclohexylmethoxy)-N-(2-hydroxycyclopentyl)-2-methylimidazo[1,2-a]pyridine-3-carboxamide] was tested. Which minimal effective concentration did it give?
Its minimal effective concentration is 0.3 µM.

For CCC(O)CNC(=O)c1c(C)nc2c(OCCC(C(F)(F)F)C(F)(F)F)cc(C)cn12 (racemic) [Example 174, rac-N-(2-hydroxybutyl)-2,6-dimethyl-8-[4,4,4-trifluoro-3-(trifluoromethyl)butoxy]imidazo[1,2-a]pyridine-3-carboxamide], which minimal effective concentration is on record?
The minimal effective concentration was 3 µM.

With Cc1nc2c(OCc3c(F)cccc3F)cccn2c1C(=O)NCCC(C)(C)O [Example 153, 8-[(2,6-difluorobenzyl)oxy]-N-(3-hydroxy-3-methylbutyl)-2-methylimidazo[1,2-a]pyridine-3-carboxamide] as the compound, how does the minimal effective concentration read?
The minimal effective concentration was 0.3 µM.

How did the minimal effective concentration turn out when Cc1nc2c(OCc3cccc(Cl)c3Cl)cccn2c1C(=O)NCCC1(O)CCCC1 [Example 47, 8-[(2,3-dichlorobenzyl)oxy]-N-[2-(1-hydroxycyclopentyl)ethyl]-2-methylimidazo[1,2-a]-pyridine-3-carboxamide] was run?
The minimal effective concentration was 0.3 µM.

How did the minimal effective concentration turn out when Cc1nc2c(OCc3c(F)cccc3F)cccn2c1C(=O)NC(CO)c1cccnc1 (racemic) [Example 124, rac-8-[(2,6-Difluorobenzyl)oxy]-N-[2-hydroxy-1-(pyridin-3-yl)ethyl]-2-methylimidazo[1,2-a]-pyridine-3-carboxamide] was run?
The minimal effective concentration was 0.3 µM.

With CCCC[C@H](CO)NC(=O)c1c(C)nc2c(OCc3cccc(C(F)(F)F)c3F)cccn12 [Example 14, 8-{[2-fluoro-3-(trifluoromethyl)benzyl]oxy}-N-[(2R)-1-hydroxyhexan-2-yl]-2-methylimidazo[1,2-a]-pyridine-3-carboxamide] as the compound, how does the minimal effective concentration read?
Its minimal effective concentration is 3 µM.

With Cc1nc2c(OCc3c(F)cccc3F)cccn2c1C(=O)NC(CCC(F)(F)F)C(C)(C)O (single isomer, unassigned; ent-8) [Example 155, ent-8-[(2,6-Difluorobenzyl)oxy]-2-methyl-N-(6,6,6-trifluoro-2-hydroxy-2-methylhexan-3-yl)-imidazo[1,2-a]pyridine-3-carboxamide (enantiomer B)] as the compound, how does the minimal effective concentration read?
Its minimal effective concentration is 0.1 µM.

For Cc1nc2c(OCc3c(F)cccc3F)cccn2c1C(=O)NC(c1ccc(Cl)cc1)C(C)(C)O (racemic) [Example 151, rac-N-[1-(4-chlorophenyl)-2-hydroxy-2-methylpropyl]-8-[(2,6-difluorobenzyl)oxy]-2-methylimidazo[1,2-a]pyridine-3-carboxamide], which minimal effective concentration is on record?
The minimal effective concentration was 0.3 µM.

Which minimal effective concentration does the source give for Cc1nc2c(OCc3c(F)cccc3F)cccn2c1C(=O)N[C@@H](CO)C(C)C [Example 29, 8-[(2,6-difluorobenzyl)oxy]-N-[(2R)-1-hydroxy-3-methylbutan-2-yl]-2-methylimidazo[1,2-a]-pyridine-3-carboxamide] here?
The minimal effective concentration was 0.1 µM.

CCCC[C@@H](NC(=O)c1c(C)nc2c(OCc3c(F)cccc3F)cccn12)C(O)C(F)(F)F (stereo partly drawn) [Example 141, 8-[(2,6-Difluorobenzyl)oxy]-2-methyl-N-[(3R)-1,1,1-trifluoro-2-hydroxyheptan-3-yl]imidazo[1,2-a]pyridine-3-carboxamide] was tested. Which minimal effective concentration did it give?
The minimal effective concentration was 0.1 µM.

How did the minimal effective concentration turn out when Cc1nc2c(OCc3c(F)cccc3F)cccn2c1C(=O)NC(C)C(O)C(F)(F)F (single isomer, unassigned) [Example 145, 8-[(2,6-Difluorobenzyl)oxy]-2-methyl-N-(4,4,4-trifluoro-3-hydroxybutan-2-yl)imidazo[1,2-a]-pyridine-3-carboxamide] was run?
Its minimal effective concentration is over 10 µM.

For CCCC[C@@H](NC(=O)c1c(C)nc2c(OCc3c(F)cccc3F)cccn12)C(C)O (stereo partly drawn) [Example 139, 8-[(2,6-Difluorobenzyl)oxy]-N-[(3R)-2-hydroxyheptan-3-yl]-2-methylimidazo[1,2-a]pyridine-3-carboxamide], which minimal effective concentration is on record?
Its minimal effective concentration is 0.03 µM.

For CCCC[C@H](CO)NC(=O)c1c(C)nc2c(OCc3c(C)cccc3C)cccn12 [Example 13, 8-[(2,6-dimethylbenzyl)oxy]-N-[(2R)-1-hydroxyhexan-2-yl]-2-methylimidazo[1,2-a]pyridine-3-carboxamide], which minimal effective concentration is on record?
Its minimal effective concentration is 3 µM.

How did the minimal effective concentration turn out when CCCC[C@H](CO)NC(=O)c1c(C)nc2c(OCc3cccc(F)c3F)cccn12 [Example 10, 8-[(2,3-difluorobenzyl)oxy]-N-[(2R)-1-hydroxyhexan-2-yl]-2-methylimidazo[1,2-a]pyridine-3-carboxamide] was run?
Its minimal effective concentration is 0.3 µM.

Which minimal effective concentration does the source give for CCCC[C@H](CO)NC(=O)c1c(C)nc2c(OCc3c(F)cccc3F)cc(N3CCOCC3)cn12 [Example 63, 8-[(2,6-difluorobenzyl)oxy]-N-[(2R)-1-hydroxyhexan-2-yl]-2-methyl-6-(morpholin-4-yl)imidazo[1,2-a]pyridine-3-carboxamide] here?
Its minimal effective concentration is 3 µM.

Which minimal effective concentration does the source give for [2H]C([2H])(Oc1cccn2c(C(=O)N[C@@H](CO)CCCC)c(C)nc12)c1c(F)cccc1F [Example 115, 8-{[(2,6-difluorophenyl)(^2H2)methyl]oxy}-N-[(2R)-1-hydroxyhexan-2-yl]-2-methylimidazo[1,2-a]pyridine-3-carboxamide] here?
The minimal effective concentration was 0.01 µM.
